These results are taken from ChEMBL document CHEMBL3826912 (ACS Med Chem Lett, 2016).

A short description of one series: in vivo. The conditions noted are these: rat, po, 5 mg/kg.
A short description of a further series: in vitro. Particulars: human, MT2 cells; call rule not given here.
Series [1] is described as follows: Dissociation constant, pKa of the compound. In kind it is physicochemical.
A short description of series [2]: Half life in human liver microsomes at 0.5 uM in presence of NADPH by LC-MS/MS analysis. In kind it is ADME.
Series [3] is described as follows: Half life in rat liver microsomes at 0.5 uM in presence of NADPH by LC-MS/MS analysis. Type of series: ADME. (In general: Liver microsomes are vesicles of endoplasmic reticulum, rich in cytochrome P450 enzymes.)
A short description of series [4]: Half life in dog liver microsomes at 0.5 uM in presence of NADPH by LC-MS/MS analysis. In kind it is ADME, Canis lupus familiaris.
The nature of series [5]: Half life in monkey liver microsomes at 0.5 uM in presence of NADPH by LC-MS/MS analysis. Type of series: ADME, Macaca mulatta. Particulars: rhesus monkey.
A short description of series [6]: Oral bioavailability in mouse at 5 mg/kg by LC-MS/MS analysis. In kind it is ADME, organism-based. Particulars: in vivo.
Series [7] can be described thus: Oral bioavailability in rat at 5 mg/kg by LC-MS/MS analysis. Type of series: ADME, organism-based. Particulars: in vivo.
Series [8] is described as follows: Oral bioavailability in dog at 1.85 mg/kg by LC-MS/MS analysis. Type of series: ADME, organism-based, Canis lupus familiaris. The conditions noted are these: in vivo.
The nature of series [9]: Oral bioavailability in Cynomolgus monkey at 2 mg/kg by LC-MS/MS analysis. The conditions noted are these: in vivo. In kind it is ADME, organism-based, Macaca fascicularis.
The nature of series [10]: AUCtotal in mouse at 5 mg/kg administered via oral gavage by LC-MS/MS analysis. Also on record: dose 5 mg/kg, route oral, time AUCmax. Type of series: ADME, organism-based. The conditions noted are these: in vivo.
Series [11] in a line: AUCtotal in rat at 5 mg/kg administered via oral gavage by LC-MS/MS analysis. Particulars: in vivo. In kind it is ADME, organism-based. Also on record: dose 5 mg/kg, time AUCmax, route oral.
Series [12] in a line: AUCtotal in dog at 1.85 mg/kg administered via oral gavage by LC-MS/MS analysis. Type of series: ADME, organism-based, Canis lupus familiaris. Also noted: dose 1.85 mg/kg, time AUCmax, route oral. Particulars: in vivo.
Series [13] in a line: AUCtotal in Cynomolgus monkey at 2 mg/kg administered via oral gavage by LC-MS/MS analysis. Type of series: ADME, organism-based, Macaca fascicularis. Also noted: dose 2 mg/kg, route oral, time AUCmax. Particulars: in vivo.
Series [14] is described as follows: Drug level in mouse at 5 mg/kg administered via oral gavage after 24 hrs by LC-MS/MS analysis. Type of series: ADME, organism-based. The conditions noted are these: in vivo, read-out: Drug uptake.
Series [15] is described as follows: Drug level in rat at 5 mg/kg administered via oral gavage after 24 hrs by LC-MS/MS analysis. Type of series: ADME, organism-based. Particulars: in vivo, read-out: Drug uptake.
Series [16] in a line: Drug level in dog at 1.85 mg/kg administered via oral gavage after 24 hrs by LC-MS/MS analysis. Type of series: ADME, organism-based, Canis lupus familiaris. Particulars: in vivo, read-out: Drug uptake.
The nature of series [17]: Drug level in Cynomolgus monkey at 2 mg/kg administered via oral gavage after 24 hrs by LC-MS/MS analysis. In kind it is ADME, organism-based, Macaca fascicularis. Particulars: in vivo, read-out: Drug uptake.
Series [18] can be described thus: Half life in iv dosed mouse by LC-MS/MS analysis. In kind it is ADME, organism-based. The conditions noted are these: in vivo.
The nature of series [19]: Half life in iv dosed rat by LC-MS/MS analysis. The conditions noted are these: in vivo. Type of series: ADME, organism-based.
Series [20] is described as follows: Half life in iv dosed dog by LC-MS/MS analysis. Particulars: in vivo. Type of series: ADME, organism-based, Canis lupus familiaris.
A short description of series [21]: Half life in iv dosed Cynomolgus monkey by LC-MS/MS analysis. Type of series: ADME, organism-based, Macaca fascicularis. The conditions noted are these: in vivo.
Series [22] is described as follows: Protein binding in human serum by ultracentrifugation method. In kind it is ADME. Particulars: read-out: PB.
The test system of the next series is Salmonella typhimurium. The experiment in a line: Mutagenicity in Salmonella typhimurium. Type of series: toxicity, organism-based. The conditions noted are these: salmonella enterica subsp. enterica serovar typhimurium.
Series [23] in a line: Inhibition of CYP450 in human microsomes. In kind it is ADME.

Description for in vitro: Cytotoxicity against human MT2 cells
Description for in vivo: AUC (0 to 24 hrs) in rat at 5 mg/kg, po

Consider `C=C(C)[C@@H]1CC[C@]2(C(=O)O)CC[C@]3(C)[C@H](CC[C@@H]4[C@@]5(C)CC=C(c6ccc(C(=O)O)cc6)C(C)(C)[C@@H]5CC[C@]43C)[C@@H]12`, for which the AUC(0-t) (in general, exposure summed from dosing to a finite time, without extrapolation to infinity) at 24 h in the series “in vivo” stood at 5.72 µM·h. In addition, in “in vitro”, half-maximal cytotoxicity (CC50) was put at 27.2 nM.

In “in vivo”, `C=C(C)[C@@H]1CC[C@]2(C(=O)NCCN(C)C)CC[C@]3(C)[C@H](CC[C@@H]4[C@@]5(C)CC=C(c6ccc(C(=O)O)cc6)C(C)(C)[C@@H]5CC[C@]43C)[C@@H]12` gave an AUC(0-t) at 24 h of 1.62 µM·h. For the same compound, in the series “in vitro”, it took 2.61 nM to reach half-maximal cytotoxicity (CC50).

Regarding `C=C(C)[C@@H]1CC[C@]2(CNCCCN3CCS(=O)(=O)CC3)CC[C@]3(C)[C@H](CC[C@@H]4[C@@]5(C)CC=C(c6ccc(C(=O)O)cc6)C(C)(C)[C@@H]5CC[C@]43C)[C@@H]12`, the pKa (commonly the pH at which an ionisable group is half protonated) in [1] was determined as 4.5. The compound also displayed an AUC(0-t) at 24 h in “in vivo” of 1.71 µM·h. Moreover, half-maximal cytotoxicity in “in vitro” (CC50) was put at 3.5 nM.

Regarding `C=C(C)[C@@H]1CC[C@]2(CNCCN(C)C)CC[C@]3(C)[C@H](CC[C@@H]4[C@@]5(C)CC=C(c6ccc(C(=O)O)cc6)C(C)(C)[C@@H]5CC[C@]43C)[C@@H]12`, the AUC(0-t) at 24 h in the series “in vivo” is 0.153 µM·h. Besides, the CC50 – broadly, the concentration giving 50% cytotoxicity – in the series “in vitro” is 1.24 nM.

In the case of `C=C(C)[C@@H]1CC[C@]2(CNC(C)C)CC[C@]3(C)[C@H](CC[C@@H]4[C@@]5(C)CC=C(c6ccc(C(=O)O)cc6)C(C)(C)[C@@H]5CC[C@]43C)[C@@H]12`, the CC50 in the series “in vitro” is 2.36 nM.

Compound `C=C(C)[C@@H]1CC[C@]2(CNCCO)CC[C@]3(C)[C@H](CC[C@@H]4[C@@]5(C)CC=C(c6ccc(C(=O)O)cc6)C(C)(C)[C@@H]5CC[C@]43C)[C@@H]12` yielded an AUC(0-t) at 24 h in “in vivo” of 4.98 µM·h. The CC50 in “in vitro” is 8.48 nM.

In the series “in vivo”, `C=C(C)[C@@H]1CC[C@]2(CNCCCN3CCCC3=O)CC[C@]3(C)[C@H](CC[C@@H]4[C@@]5(C)CC=C(c6ccc(C(=O)O)cc6)C(C)(C)[C@@H]5CC[C@]43C)[C@@H]12` showed an AUC(0-t) at 24 h of 1.04 µM·h. The midpoint of cytotoxicity in “in vitro”, the CC50, lay at 5.8 nM.

`C=C(C)[C@@H]1CC[C@]2(NCCN3CCS(=O)(=O)CC3)CC[C@]3(C)[C@H](CC[C@@H]4[C@@]5(C)CC=C(c6ccc(C(=O)O)cc6)C(C)(C)[C@@H]5CC[C@]43C)[C@@H]12` [BMS-955176]: the half-life (as a rule, how long it takes for the measured level to halve) at 0.5 µM in [2] is greater than 2 h; in series [3] it was greater than 2 h; in [4], greater than 2 h; in series [5], 0.2 h. Further, the bioavailability (commonly the share of a dose that reaches the circulation, judged against a reference dose that is usually intravenous) in series [6] was 27%; in [7] it was 26%; in [8] it was 8.5%; in series [9] it was 3.9%. For the same compound, the AUC (in general, concentration integrated over time) in series [10] worked out at 28.9 µM·h; in series [11], 14.2 µM·h; in [12], 29.4 µM·h; in series [13] it was 0.995 µM·h. Further, the concentration at 24 h in series [14] is 256 nM; in series [15], 128 nM; in series [16] it was 559 nM; in [17], 17.4 nM. The half-life in series [18] was 8.9 h; in [19] it was 6.6 h; in series [20], 31.7 h; in [21], 8.6 h. In series [22], the fraction unbound was less than 0.16. In addition, the Activity result with Salmonella typhimurium is “Non-toxic”. The “inhibition (INH)” value in series [23] is “Not Active”. Moreover, the AUC(0-t) at 24 h in the series “in vivo” came out at 4.13 µM·h. This compound also displayed a CC50 in “in vitro” of 9.2 nM.
